Measurements reported in ChEMBL document CHEMBL2073741, “MRP8, ATP-binding cassette C11 (ABCC11), is a cyclic nucleotide efflux pump and a resistance factor for fluoropyrimidines 2',3'-dideoxycytidine and 9'-(2'-phosphonylmethoxyethyl)adenine” (J Biol Chem, 2003).

Biological target: ATP-binding cassette sub-family C member 11 (Homo sapiens) (UniProt Q96J66)
Test: TP_TRANSPORTER: transport into inside-out membrane vesicles in membrane vesicle from MRP8-2-expressing LLC-PK1 cells
Assay type: functional, cell membranes

Sequence of ATP-binding cassette sub-family C member 11 (Homo sapiens) (Q96J66 whole entry): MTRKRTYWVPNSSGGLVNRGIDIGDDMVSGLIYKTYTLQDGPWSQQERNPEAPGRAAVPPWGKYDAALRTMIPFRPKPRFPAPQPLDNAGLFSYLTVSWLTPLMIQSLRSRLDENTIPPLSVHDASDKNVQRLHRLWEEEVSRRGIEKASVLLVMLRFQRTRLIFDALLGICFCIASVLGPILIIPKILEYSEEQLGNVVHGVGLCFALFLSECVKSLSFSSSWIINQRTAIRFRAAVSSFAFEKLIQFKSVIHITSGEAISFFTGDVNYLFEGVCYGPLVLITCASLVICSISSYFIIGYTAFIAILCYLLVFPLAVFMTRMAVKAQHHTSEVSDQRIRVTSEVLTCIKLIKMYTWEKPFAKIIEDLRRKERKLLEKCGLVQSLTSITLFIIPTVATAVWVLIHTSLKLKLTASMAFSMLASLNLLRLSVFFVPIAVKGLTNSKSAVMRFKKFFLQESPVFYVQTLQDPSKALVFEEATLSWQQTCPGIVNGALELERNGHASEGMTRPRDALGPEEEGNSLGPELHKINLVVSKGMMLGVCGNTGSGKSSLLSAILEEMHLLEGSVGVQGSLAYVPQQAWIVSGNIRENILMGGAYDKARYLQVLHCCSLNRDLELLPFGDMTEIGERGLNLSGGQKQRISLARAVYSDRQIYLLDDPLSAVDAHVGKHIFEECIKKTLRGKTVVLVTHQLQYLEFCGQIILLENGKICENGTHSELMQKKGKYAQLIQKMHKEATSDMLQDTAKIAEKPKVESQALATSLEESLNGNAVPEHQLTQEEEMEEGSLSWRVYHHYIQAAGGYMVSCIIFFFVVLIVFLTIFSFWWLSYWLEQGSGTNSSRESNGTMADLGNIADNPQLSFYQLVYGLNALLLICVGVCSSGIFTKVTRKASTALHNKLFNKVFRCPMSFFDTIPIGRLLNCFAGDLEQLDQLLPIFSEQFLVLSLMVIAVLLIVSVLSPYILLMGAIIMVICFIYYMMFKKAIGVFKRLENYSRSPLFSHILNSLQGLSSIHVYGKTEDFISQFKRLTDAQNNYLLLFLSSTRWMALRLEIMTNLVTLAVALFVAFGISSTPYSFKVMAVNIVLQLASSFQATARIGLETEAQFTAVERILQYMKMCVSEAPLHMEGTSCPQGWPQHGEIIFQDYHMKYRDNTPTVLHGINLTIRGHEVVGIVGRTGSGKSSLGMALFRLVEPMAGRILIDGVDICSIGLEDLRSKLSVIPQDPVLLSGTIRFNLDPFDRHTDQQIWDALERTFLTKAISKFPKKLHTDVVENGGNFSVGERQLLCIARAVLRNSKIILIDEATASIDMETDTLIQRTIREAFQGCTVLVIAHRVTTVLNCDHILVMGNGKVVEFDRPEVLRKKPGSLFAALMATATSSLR

## O=c1[nH]c(=O)n([C@H]2C[C@H](O)[C@@H](COP(=O)(O)O)O2)cc1F
  Activity: substrate []
